Values of other authors, collected in patent publication US6410588B1, “Use of cannabinoids as anti-inflammatory agents” (priority 1998, dated 2002).

Assays:
IFNγ = settings: cited from earlier work
[1] = test system: antibody formation against sheep red blood cells; settings: studies in mice; cited from earlier work
nitric oxide (NO) = settings: macrophages activated by LPS and IFNγ; cited from earlier work

For `CCCCCc1cc(O)c2c(c1)OC(C)(C)C1CCC(C)=CC21` (stereo not shown) [THC, Delta-9-tetrahydrocannabinoid, reference compound], the IFNγ synthesis (IFNγ; high concentrations (5-24 μg/ml)) is listed as “completely blocked IFNγ synthesis”, the IFNγ production (IFNγ; low concentrations) is listed as “increase IFNγ production” and the “antibody formation against sheep red blood cells” value [1] is listed as “suppresses antibody formation”. The “nitric oxide (NO) production” value (nitric oxide (NO)) was “inhibited”.
